Measurements taken from US11987586B1 (TAKEDA PHARMACEUTICAL COMPANY LIMITED, priority 2022, dated 2024).

Each compound was assayed against T1, human OX2 receptor (Homo sapiens, UniProt O43614) (assay: Measurement of orexin type 2 receptor agonist activity (calcium fluorescence, Fluo-4, FDSS)). Conditions: 3 uM test compound; CHO cells expressing human OX2 receptor; DMSO = 0%, 10 nM orexin A (human) = 100%.
T1 construct: expressed in transfected cells
T1 sequence (O43614 1-444): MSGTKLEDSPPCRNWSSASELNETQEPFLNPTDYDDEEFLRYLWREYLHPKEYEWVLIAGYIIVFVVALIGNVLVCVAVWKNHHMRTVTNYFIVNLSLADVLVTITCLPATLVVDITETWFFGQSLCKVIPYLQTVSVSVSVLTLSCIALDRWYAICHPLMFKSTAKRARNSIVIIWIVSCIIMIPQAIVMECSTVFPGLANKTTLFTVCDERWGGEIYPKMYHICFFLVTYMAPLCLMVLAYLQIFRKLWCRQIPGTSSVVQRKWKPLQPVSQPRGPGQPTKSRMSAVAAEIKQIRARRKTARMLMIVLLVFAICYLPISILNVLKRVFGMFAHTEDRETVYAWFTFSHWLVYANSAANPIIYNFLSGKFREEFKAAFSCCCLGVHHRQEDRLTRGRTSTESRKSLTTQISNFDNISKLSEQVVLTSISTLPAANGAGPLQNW
Type: cell-based
Description: In order to obtain cell clones that stably express human orexin type 2 receptor, human orexin type 2 (residues 1-444, NCBI Reference Sequence: AK314279) was constructed in a pcDNA3.1 (+) vector (Invitrogen) to express in mammalian cells. This plasmid DNA was transfected into CHO-K1 cells by electroporation, and stable clones were obtained by limiting dilution using resistance to G418 as a selection marker.
CHO cells in which human OX2 receptor was forcibly expressed were seeded at 10,000 cells/well into a 384-well black transparent bottom plate (BD falcon), and were incubated at 37° C., 5% CO2 for 1 day after incubation at room temperature for 30 minutes. After removing the cell plate medium, assay buffer containing calcium indicator A (HBSS (Thermo Fisher Scientific), 20 mM HEPES (Thermo Fisher Scientific), 0.1% BSA (Sigma-Aldrich), 2.5 μg/mL Fluo-4 AM (Dojin Kagaku), 0.08% Pluronic F127 (Dojin Kagaku), 1.25 mM probenecid (Dojin Kagaku)) was added at 30 μL/well. After incubation in a 5% CO2 incubator at 37° C. for 30 minutes, it was incubated at room temperature for another 30 minutes. Add 10 μL/well of the test compound diluted with assay buffer B (HBSS, 20 mM HEPES, 0.1% BSA), and use FDSS μCELL (Hamamatsu Photonics) to measure the fluorescence value every 1 second for 1 minute, and then every 2 seconds for 1 minute. It was measured for 1 minute and 40 seconds. The amount of fluorescence value when DMSO is added instead of the test compound is defined as 0%, and the amount of fluorescence value when orexin A (human) (Peptide Institute) with a final concentration of 10 nM is added is defined as 100%. The activity (%) of the test compound was calculated.

Structure (SMILES)	OX2R agonist activity (3 uM, %) [%]
Cc1c(-c2noc3cccc(-c4c(F)cccc4F)c23)c(=O)n2n1CC(NS(C)(=O)=O)C2 (single isomer, unassigned) [Example 340, N-{(2R*)-6-[4-(2,6-difluorophenyl)-1,2-benzoxazol-3-yl]-7-methyl-5-oxo-2,3-dihydro-1H,5H-pyrazolo[1,2-a]pyrazol-2-yl}methanesulfonamide]	92
CCS(=O)(=O)N[C@H]1Cc2c(C)n(-c3noc4cccc(-c5c(F)cccc5F)c34)c(=O)n2C1 [Example 12, N-{(6S)-2-[4-(2,6-difluorophenyl)-1,2-benzoxazol-3-yl]-1-methyl-3-oxo-2,5,6,7-tetrahydro-3H-pyrrolo[1,2-c]imidazol-6-yl}ethanesulfonamide]	105
CNS(=O)(=O)N[C@@H]1CN2C(=O)N(c3noc4cccc(-c5c(F)cccc5F)c34)C[C@@H]2C1(F)F [Example 17, N-{(6R,7aR)-2-[4-(2,6-difluorophenyl)-1,2-benzoxazol-3-yl]-7,7-difluoro-3-oxohexahydro-1H-pyrrolo[1,2-c]imidazol-6-yl}-N′-methylsulfuric diamide]	104
CS(=O)(=O)N[C@@H]1CN2C(=O)N(c3noc4cc(Cl)cc(-c5c(F)cc(F)cc5F)c34)C[C@@H]2C1(F)F [Example 25, N-{(6R,7aR)-2-[6-chloro-4-(2,4,6-trifluorophenyl)-1,2-benzoxazol-3-yl]-7,7-difluoro-3-oxohexahydro-1H-pyrrolo[1,2-c]imidazol-6-yl}methanesulfonamide]	96
O=C1N(c2noc3cccc(-c4c(F)cccc4F)c23)C[C@@H]2C[C@H](NS(=O)(=O)CF)CN12 [Example 29, N-{(6S,7aS)-2-[4-(2,6-difluorophenyl)-1,2-benzoxazol-3-yl]-3-oxohexahydro-1H-pyrrolo[1,2-c]imidazol-6-yl}-1-fluoromethanesulfonamide]	101
CCS(=O)(=O)N[C@H]1C[C@H]2CN(c3noc4c(C)ccc(-c5c(F)cccc5F)c34)C(=O)N2C1 [Example 30, N-{(6S,7aS)-2-[4-(2,6-difluorophenyl)-7-methyl-1,2-benzoxazol-3-yl]-3-oxohexahydro-1H-pyrrolo[1,2-c]imidazol-6-yl}ethanesulfonamide]	94
CCS(=O)(=O)N[C@@H]1CN2C(=O)N(c3noc4cccc(-c5c(F)cccc5F)c34)C[C@@H]2C1(F)F [Example 33, N-{(6R,7aR)-2-[4-(2,6-Difluorophenyl)-1,2-benzoxazol-3-yl]-7,7-difluoro-3-oxohexahydro-1H-pyrrolo[1,2-c]imidazol-6-yl}ethanesulfonamide]	108
CS(=O)(=O)N[C@@H]1CN2C(=O)N(c3noc4cccc(-c5c(F)cccc5F)c34)C[C@@H]2C1(F)F [Example 34, N-{(6R,7aR)-2-[4-(2,6-Difluorophenyl)-1,2-benzoxazol-3-yl]-7,7-difluoro-3-oxohexahydro-1H-pyrrolo[1,2-c]imidazol-6-yl}methanesulfonamide]	106
CS(=O)(=O)N[C@@H]1CN2C(=O)N(c3noc4ccc(F)c(-c5c(F)cccc5F)c34)C[C@@H]2C1(F)F [Example 38, N-{(6R,7aR)-2-[4-(2,6-difluorophenyl)-5-fluoro-1,2-benzoxazol-3-yl]-7,7-difluoro-3-oxohexahydro-1H-pyrrolo[1,2-c]imidazol-6-yl}methanesulfonamide]	111

The next lines start with the values.

OX2R agonist activity (3 uM, %) [%]	Structure (SMILES)
103	CCS(=O)(=O)NC1CN2C(=O)N(c3noc4cccc(-c5c(F)cccc5F)c34)C[C@@H]2C1C (stereo in doubt) [Example 158, N-{(6R*,7R*,7aS)-2-[4-(2,6-difluorophenyl)-1,2-benzoxazol-3-yl]-7-methyl-3-oxohexahydro-1H-pyrrolo[1,2-c]imidazol-6-yl}ethanesulfonamide]
101	CCS(=O)(=O)NC1CN2C(=O)N(c3noc4cccc(-c5c(F)cccc5F)c34)C[C@@H]2C1C (stereo in doubt) [Example 183, N-{(6R*,7S*,7aS)-2-[4-(2,6-difluorophenyl)-1,2-benzoxazol-3-yl]-7-methyl-3-oxohexahydro-1H-pyrrolo[1,2-c]imidazol-6-yl}ethanesulfonamide]
108	CCS(=O)(=O)N[C@H]1Cc2cn(-c3cnn4cccc(-c5c(F)cccc5F)c34)c(=O)n2C1 [Example 2, N-{(6S)-2-[4-(2,6-difluorophenyl)pyrazolo[1,5-a]pyridin-3-yl]-3-oxo-2,5,6,7-tetrahydro-3H-pyrrolo[1,2-c]imidazol-6-yl}ethanesulfonamide]
96	CCS(=O)(=O)N[C@@H]1CN2C(=O)N(c3noc4cccc(-c5c(F)cccc5F)c34)C[C@@H]2C1(C)C [Example 6, N-{(6S,7aS)-2-[4-(2,6-difluorophenyl)-1,2-benzoxazol-3-yl]-7,7-dimethyl-3-oxohexahydro-1H-pyrrolo[1,2-c]imidazol-6-yl}ethanesulfonamide]
105	CCS(=O)(=O)N[C@@H]1CN2C(=O)N(c3noc4ccc(F)c(-c5c(F)cccc5F)c34)C[C@@H]2C1(F)F [Example 7, N-{(6R,7aR)-2-[4-(2,6-difluorophenyl)-5-fluoro-1,2-benzoxazol-3-yl]-7,7-difluoro-3-oxohexahydro-1H-pyrrolo[1,2-c]imidazol-6-yl}ethanesulfonamide]
92	CCS(=O)(=O)N[C@@H]1CN2C(=O)N(c3noc4cc(Cl)cc(-c5c(F)cc(F)cc5F)c34)C[C@@H]2C1(F)F [Example 9, N-{(6R,7aR)-2-[6-chloro-4-(2,4,6-trifluorophenyl)-1,2-benzoxazol-3-yl]-7,7-difluoro-3-oxohexahydro-1H-pyrrolo[1,2-c]imidazol-6-yl}ethanesulfonamide]
97	COCS(=O)(=O)N[C@H]1C[C@H]2CN(c3noc4cccc(-c5c(F)cccc5F)c34)C(=O)N2C1 [Example 20, N-{(6S,7aS)-2-[4-(2,6-difluorophenyl)-1,2-benzoxazol-3-yl]-3-oxohexahydro-1H-pyrrolo[1,2-c]imidazol-6-yl}-1-methoxymethanesulfonamide]
81	CCS(=O)(=O)N[C@H]1C[C@H]2CN(c3noc4cccc(-c5c(F)ccc(F)c5F)c34)C(=O)N2C1 [Example 21, N-{(6S,7aS)-3-oxo-2-[4-(2,3,6-trifluorophenyl)-1,2-benzoxazol-3-yl]hexahydro-1H-pyrrolo[1,2-c]imidazol-6-yl}ethanesulfonamide]
97	CS(=O)(=O)N[C@H]1Cc2cn(-c3noc4cccc(-c5c(F)cccc5F)c34)c(=O)n2C1 [Example 26, N-{(6S)-2-[4-(2,6-difluorophenyl)-1,2-benzoxazol-3-yl]-3-oxo-2,5,6,7-tetrahydro-3H-pyrrolo[1,2-c]imidazol-6-yl}methanesulfonamide]
106	CN(C)S(=O)(=O)N[C@H]1C[C@H]2CN(c3noc4cccc(-c5c(F)cccc5F)c34)C(=O)N2C1 [Example 28, N′-{(6S,7aS)-2-[4-(2,6-difluorophenyl)-1,2-benzoxazol-3-yl]-3-oxohexahydro-1H-pyrrolo[1,2-c]imidazol-6-yl}-N,N-dimethylsulfuric diamide]
94	CCS(=O)(=O)N[C@H]1C[C@H]2CN(c3noc4cccc(-c5c(F)cccc5C(F)(F)F)c34)C(=O)N2C1 [Example 32, N-[ (6S,7aS)-2-{4-[2-fluoro-6-(trifluoromethyl)phenyl]-1,2-benzoxazol-3-yl}-3-oxohexahydro-1H-pyrrolo[1,2-c]imidazol-6-yl] ethanesulfonamide]
101	CCS(=O)(=O)N[C@H]1Cc2cn(-c3cnc4cccc(-c5c(F)cccc5F)n34)c(=O)n2C1 [Example 37, N-{(6S)-2-[5-(2,6-difluorophenyl)imidazo[1,2-a]pyridin-3-yl]-3-oxo-2,5,6,7-tetrahydro-3H-pyrrolo[1,2-c]imidazol-6-yl}ethanesulfonamide]
106	CCS(=O)(=O)N[C@@H]1Cn2c(cn(-c3noc4cc(Cl)cc(-c5c(F)cc(F)cc5F)c34)c2=O)C1(F)F [Example 39, N-{(6R)-2-[6-chloro-4-(2,4,6-trifluorophenyl)-1,2-benzoxazol-3-yl]-7,7-difluoro-3-oxo-2,5,6,7-tetrahydro-3H-pyrrolo[1,2-c]imidazol-6-yl}ethanesulfonamide]
